Data as given in patent publication US10743540B2, “3-amino-1,2,4-triazine derivatives and their use for controlling undesired plant growth” (BAYER CROPSCIENCE AKTIENGESELLSCHAFT, priority 2016, dated 2020).

Experiments:
Type in all cases: in vivo
[1] = system: STEME: Stellaria media; assay: Pre-emergence herbicidal effect; conditions: application rate 320 g/ha, scored visually after 3 weeks, 100% = plants have died, 0% = like control plants
Description: (§1) 1. Pre-Emergence Herbicidal Effect and Crop Plant Compatibility Seeds of monocotyledonous and dicotyledonous weed plants and crop plants are laid out in sandy loam soil in wood-fiber pots and covered with soil. The compounds of the invention, formulated in the form of wettable powders (WP) or as emulsion concentrates (EC), are then applied to the surface of the covering soil as aqueous suspension or emulsion at a water application rate equating to 600 to 800 L/ha with addition of 0.2% wetting agent. After the treatment, the pots are placed in a greenhouse and kept under good growth conditions for the trial plants. The damage to the test plants is scored visually after a test period of 3 weeks by comparison with untreated controls (herbicidal activity in percent (%): 100% activity=the plants have died, 0% activity=like control plants). [table]

[2] = system: VERPE: Veronica persica; assay: Pre-emergence herbicidal effect; conditions: application rate 320 g/ha, scored visually after 3 weeks, 100% = plants have died, 0% = like control plants
Description: as §1

[3] = system: VIOTR: Viola tricolor; assay: Post-emergence herbicidal effect; conditions: application rate 320 g/ha, treated at one-leaf stage, assessed visually after about 3 weeks, 100% = plants have died
Method: (§2) [table] 2. Post-Emergence Herbicidal Effect and Crop Plant Compatibility Seeds of monocotyledonous and dicotyledonous weed and crop plants are laid out in sandy loam soil in wood-fiber pots, covered with soil and cultivated in a greenhouse under good growth conditions. 2 to 3 weeks after sowing, the test plants are treated at the one-leaf stage. The compounds of the invention, formulated in the form of wettable powders (WP) or as emulsion concentrates (EC), are then sprayed onto the green parts of the plants as aqueous suspension or emulsion at a water application rate equating to 600 to 800 L/ha with addition of 0.2% wetting agent. After the test plants have been left to stand in the greenhouse under optimal growth conditions for about 3 weeks, the action of the preparations is assessed visually in comparison to untreated controls (herbicidal action in percent (%): 100% activity=the plants have died, 0% activity=like control plants).

[4] = system: VERPE: Veronica persica; assay: Post-emergence herbicidal effect; conditions: application rate 320 g/ha, treated at one-leaf stage, assessed visually after about 3 weeks, 100% = plants have died
Method: as §2

[5] = system: MATIN: Matricaria inodora; assay: Pre-emergence herbicidal effect; conditions: application rate 320 g/ha, scored visually after 3 weeks, 100% = plants have died, 0% = like control plants
Description: as §1

[6] = system: ECHCG: Echinochloa crus-galli; assay: Pre-emergence herbicidal effect; conditions: application rate 320 g/ha, scored visually after 3 weeks, 100% = plants have died, 0% = like control plants
Description: as §1

[7] = system: POLCO: Polygonum convolvulus; assay: Pre-emergence herbicidal effect; conditions: application rate 320 g/ha, scored visually after 3 weeks, 100% = plants have died, 0% = like control plants
Description: as §1

[8] = system: STEME: Stellaria media; assay: Post-emergence herbicidal effect; conditions: application rate 320 g/ha, treated at one-leaf stage, assessed visually after about 3 weeks, 100% = plants have died
Method: as §2

| SMILES | Herbicidal activity with respect to [%] STEME [1] [%] | Herbicidal activity with respect to [%] VERPE [2] [%] | Herbicidal activity with respect to [%] VIOTR [3] [%] | Herbicidal activity with respect to [%] VERPE [4] [%] | Herbicidal activity with respect to [%] MATIN [5] [%] | Herbicidal activity with respect to [%] ECHCG [6] [%] | Herbicidal activity with respect to [%] POLCO [7] [%] | Herbicidal activity with respect to [%] STEME [8] [%] |
| --- | --- | --- | --- | --- | --- | --- | --- | --- |
| Cc1ccc2c(c1)[C@H](Nc1nnc(C(=O)NS(=O)(=O)c3ccc([N+](=O)[O-])cc3)c(N)n1)[C@@H](C)C2 [Example 1.56] | 100 | 100 |  |  |  |  |  |  |
| C=Cc1nnc(N[C@H]2c3cc(C)ccc3C[C@@H]2C)nc1N [Example 1.80] | 100 | 100 | 100 |  |  |  |  |  |
| CCOC(=O)CCNC(=O)c1nnc(N[C@H]2c3cc(C)ccc3C[C@@H]2C)nc1N [Example 1.42] | 100 | 80 |  |  |  |  |  |  |
| CNC(=O)c1nnc(N[C@@H]2CCCc3ccccc32)nc1N [Example 1.34, 5-Amino-N-methyl-3-[(1R)-1,2,3,4-tetrahydronaphthalen-1-ylamino]-1,2,4-triazine-6-carboxamide] |  |  |  | 90 |  |  |  |  |
| CC(C)(C)c1nnc(N[C@@H]2CCCc3ccccc32)nc1N [Example 1.5] |  | 100 |  | 80 | 90 |  |  |  |
| CCOC(=O)c1nnc(N[C@@H]2CCc3ccccc32)nc1N [Example 1.33] | 100 | 100 |  | 80 | 100 | 80 | 100 |  |
| CC(C)(C)c1nnc(NC2CCOc3ccccc32)nc1N (racemic) [Example 1.8] | 80 | 100 |  |  |  |  |  |  |
| CC(C)(C)c1nnc(N[C@@H]2CCc3ccccc32)nc1N [Example 1.7] |  | 100 |  | 90 | 90 |  |  |  |
| Cc1ccc2c(c1)[C@H](Nc1nnc(Cl)c(NC3CC3)n1)[C@@H](C)C2 [Example 1.2] | 100 | 100 |  |  | 90 |  |  |  |
| Cc1ccc2c(c1)[C@H](Nc1nnc(-c3ccc(Cl)cc3)c(N)n1)[C@@H](C)C2 [Example 1.79, 6-(4-Chlorophenyl)-N^3-[(1R,2S)-2,6-dimethyl-2,3-dihydro-1H-inden-1-yl]-1,2,4-triazine-3,5-diamine] | 100 | 100 |  |  |  |  |  |  |
| N#Cc1nnc(NC2CCCc3cc(F)ccc32)nc1N (racemic) [Example 1.63] | 100 |  |  |  |  |  |  |  |
| CC(=O)c1nnc(N[C@@H]2CCc3ccccc32)nc1N [Example 1.29, 1-[5-Amino-3-[(1R)-2,3-dihydro-1H-inden-1-ylamino]-1,2,4-triazin-6-yl]ethanone] | 90 | 90 | 80 |  | 100 |  | 80 | 90 |
| Cc1ccc2c(c1)[C@H](Nc1nnc(C(C)(C)C)c(N)n1)[C@@H](C)C2 [Example 1.6] |  | 100 | 80 | 80 | 90 |  |  |  |
| Clc1nnc(NC2CCCc3ccccc32)nc1NC1CC1 (racemic) [Example 1.10] | 80 |  |  |  |  |  |  |  |
| Cc1ccc2c(c1)[C@H](Nc1nnc(C(=O)NS(=O)(=O)C(F)(F)F)c(N)n1)[C@@H](C)C2 [Example 1.57] | 100 | 100 |  | 80 |  |  |  |  |
| Cc1ccc2c(c1)[C@H](Nc1nnc(C(=O)O)c(N)n1)CC2 [Example 1.75] |  |  |  |  |  |  |  | 100 |
| Cc1ccc2c(c1)[C@H](Nc1nnc(C(C)(C)O)c(N)n1)[C@@H](C)C2 [Example 1.105] | 100 | 100 | 90 | 80 | 100 | 100 | 100 |  |
| N#Cc1nnc(N[C@@H]2CCc3ccccc32)nc1N [Example 1.38] | 100 | 100 | 90 |  |  | 80 |  |  |
| Cc1ccc2c(c1)[C@H](Nc1nnc(C(=O)NS(=O)(=O)c3ccccc3)c(N)n1)[C@@H](C)C2 [Example 1.55] | 100 | 90 | 80 | 80 |  |  |  |  |
| CCCS(=O)(=O)NC(=O)c1nnc(N[C@H]2c3cc(C)ccc3C[C@@H]2C)nc1N [Example 1.53] | 100 | 100 |  | 80 |  |  |  |  |
| CNC(=O)c1nnc(NC2CCc3ccccc32)nc1N (racemic) [Example 1.35] |  | 100 |  |  |  |  |  |  |
| Cc1ccc2c(c1)[C@@H](Nc1nnc(C#N)c(N)n1)CC2 [Example 1.61] | 80 |  |  |  |  |  |  |  |
| CCOC(=O)CNC(=O)c1nnc(N[C@H]2c3cc(C)ccc3C[C@@H]2C)nc1N [Example 1.43] | 100 | 100 | 80 | 80 | 100 |  |  |  |
| Nc1nc(NC2c3ccccc3CC2O)nnc1C(F)(F)F (racemic) [Example 1.84] | 100 | 100 | 90 | 80 |  |  |  |  |
| Clc1nnc(NC2CCOc3ccccc32)nc1NC1CC1 (racemic) [Example 1.14] | 90 |  |  |  |  |  |  |  |
| CS(=O)(=O)c1nnc(NC2c3ccccc3CC2O)nc1N (stereo not shown) [Example 1.87] | 100 | 90 |  |  |  |  |  |  |
| C=C(c1nnc(N[C@H]2c3cc(C)ccc3C[C@@H]2C)nc1N)C(F)(F)F [Example 1.81] | 100 | 100 | 80 |  | 100 | 100 | 100 |  |
| Nc1nc(NC2COc3ccccc32)nnc1C(F)(F)F (racemic) [Example 1.48] | 100 | 100 |  | 80 | 100 | 100 |  | 100 |
| CC(=O)c1nnc(N[C@@H]2CCCc3ccccc32)nc1N [Example 1.30] | 100 | 100 |  | 80 | 100 | 80 | 100 | 80 |
